Test system: MG63 osteosarcoma cells
Assay: In vitro MG63 osteosarcoma proliferation assay, Test (c)
Type: cell-based
Conditions: Homo sapiens, MG-63, BrdU, 72 hours, read-out: IC50 versus MG63 osteosarcoma proliferation
Procedure: This assay determined the ability of a test compound to inhibit the proliferation of MG63 osteosarcoma cells (ATCC CCL 1427):
MG63 cells were seeded at 1.5×10^3 cells per well into 96-well clear tissue culture-treated assay plates (Corning Life Sciences; Catalogue No. 3595) to which had been added 60 μl per well of test medium comprising DMEM without phenol red, 1% charcoal-stripped FCS and 2 mM glutamine and the cells were incubated overnight at 37° C. with 7.5% CO2.
Test compounds were solubilised in DMSO to provide a 10 mM stock solution. Aliquots of the stock solution were diluted with the test medium described above and 20 μl aliquots of each dilution were added to appropriate wells. Serial dilutions were made to give a range of test concentrations. […]
BrdU labelling reagent (Roche Diagnostics Ltd., Lewes, East Sussex, UK; Catalogue No. 647 229) was diluted by a factor of 1:100 in DMEM medium containing 1% charcoal stripped FCS and aliquots (10 μl) were added to each well to give a final concentration of 10 μM. […] Aqueous sulphuric acid (1M; 50 μl) was added to the appropriate wells to stop any further reaction and the absorbance of the wells was measured at 450 nm. The extent of inhibition of cellular proliferation at a range of concentrations of each test compound was determined and an anti-proliferative IC50 value was derived.

IC50: ~40 nM
SMILES: COc1cc2ncnc(Oc3cnn(CC(=O)Nc4cccc5c4OCO5)c3)c2cc1OC [Example 2, N-(2,3-methylenedioxyphenyl)-2-[4-(6,7-dimethoxyquinazolin-4-yloxy)pyrazol-1-yl]acetamide]

Source: patent US20090036474A1, “Quinazoline derivatives for use against cancer” (priority 2004, published 2009)
